Paper PMC11873611 (Acta Pharmaceutica Sinica. B, 2024)
Changes are numbered by the printed parent chain. pKd: −log10 of the molar value.

What was measured:
PGAM5 [1] = molecular target: T1, PGAM5 (Homo sapiens, UniProt Q96HS1); assay: SPR; assay type: binding
T1 sequence (Q96HS1 22-289): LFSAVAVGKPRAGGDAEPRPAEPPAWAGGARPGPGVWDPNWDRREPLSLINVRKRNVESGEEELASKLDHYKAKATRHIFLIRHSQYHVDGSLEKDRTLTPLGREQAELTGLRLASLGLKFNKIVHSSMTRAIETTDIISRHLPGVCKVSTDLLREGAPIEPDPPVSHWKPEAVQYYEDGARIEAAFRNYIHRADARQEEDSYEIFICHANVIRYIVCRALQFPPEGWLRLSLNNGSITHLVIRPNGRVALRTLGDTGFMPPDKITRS

PGAM5 [2] = molecular target: T2, PGAM5 (Homo sapiens, UniProt Q96HS1, C168A); assay: in vitro PGAM5 phosphatase assay; assay type: biochemical
T2 sequence (Q96HS1 22-289 C168A): T1 sequence (Q96HS1 22-289) with C147A

PGAM5 [3] = molecular target: T1, PGAM5; assay: SPR; assay type: binding; remark: listed apart in the source
PGAM5 [4] = molecular target: T3, PGAM5 (Mus musculus, UniProt Q8BX10); assay: DARTS, CETSA and SIP target engagement in BMDMs; assay type: cell-based
T3 sequence (Q8BX10 1-288): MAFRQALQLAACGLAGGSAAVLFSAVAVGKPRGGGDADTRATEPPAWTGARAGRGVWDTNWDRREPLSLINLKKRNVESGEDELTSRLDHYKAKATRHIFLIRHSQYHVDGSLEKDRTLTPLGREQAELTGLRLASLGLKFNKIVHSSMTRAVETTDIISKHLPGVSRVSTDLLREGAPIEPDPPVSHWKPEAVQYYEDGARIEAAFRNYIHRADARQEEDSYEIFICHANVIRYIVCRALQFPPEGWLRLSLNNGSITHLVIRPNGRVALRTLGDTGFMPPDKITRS

PGAM5 [5] = molecular target: T4, PGAM5 (Homo sapiens, UniProt Q96HS1, C229A); assay: in vitro PGAM5 phosphatase assay; assay type: biochemical
T4 sequence (Q96HS1 22-289 C229A): T1 sequence (Q96HS1 22-289) with C208A

Row | Compound | SPR (Fig. S9L and S9M) (PGAM5 [1]) | in vitro PGAM5 phosphatase assay (phosphopeptide, BIOMOL Green) (PGAM5 [2]) | pKd (PGAM5 [3]) | DARTS, CETSA and SIP target engagement in BMDMs (PGAM5 [4]) | in vitro PGAM5 phosphatase assay (phosphopeptide, BIOMOL Green) (PGAM5 [5])
1 | O=C1OC[C@H]2OC(O)[C@H](O)[C@@H](O)[C@@H]2OC(=O)c2cc(O)c(O)c(O)c2-c2c(O)c(O)c3oc(=O)c4c(c(O)c(O)c5oc(=O)c2c3c54)-c2c1cc(O)c(O)c2O (mixture of isomers) [punicalin] | there was a similar direct interaction between punicalin and ΔN21 PGAM5 or ΔN90 PGAM5 compared with punicalagin | – | – | – | –
2 | O=C1O[C@H]2[C@@H]3OC(=O)c4cc(O)c(O)c(O)c4-c4c(O)c(O)c5oc(=O)c6c(c(O)c(O)c7oc(=O)c4c5c76)-c4c(cc(O)c(O)c4O)C(=O)OC[C@H]3OC(O)[C@@H]2OC(=O)c2cc(O)c(O)c(O)c2-c2c1cc(O)c(O)c2O (mixture of isomers) [punicalagin] | – | punicalagin still inhibited the phosphatase activity of PGAM5 C168A or C229A protein mutant | ~9.52 | punicalagin significantly restrained the proteolysis of PGAM5 by pronase, further supporting that punicalagin could bind to PGAM5 in BMDMs | punicalagin still inhibited the phosphatase activity of PGAM5 C168A or C229A protein mutant
